Results on 5 compounds are retold here after patent US20220088130A1, “COMPOUNDS AND METHODS FOR TREATING LIVER DISEASES” (Eberhard Karls Universität Tübingen Medizinische Fakultät, priority 2019, published 2022).

For one data set, the system named is Col-1 in M1-4HSC. Kind of data set: Col-1 production in M1-4HSC treated with Aβ (ELISA). In kind it is cell-based. The following applies: M1-4HSC culture.
The test system of another data set is α-SMA in M1-4HSC. Description: α-SMA level in M1-4HSC treated with Aβ (Western blot). Particulars: 1000 pg/ml. In kind it is cell-based. From the text: (§1) The data are shown as means±SEM, *p<0.05, ***p<0.001.
(In general: In western blotting, separated proteins are transferred to a membrane and probed.)

The test system of the next data set is M1-4HSC lysates. Description: Degradation of Aβ42 and Aβ40 by M1-4HSC lysates (ELISA). The data set is classed as in vitro ADME. The following applies: for Degradation by M1-4HSC lysates: 1000 pg/ml, normalized to control without cells.
Another data set deals with TGF-β in M1-4HSC. Description: TGF-β level in M1-4HSC treated with Aβ (Western blot, densitometry). In kind it is cell-based. Particulars: for Expression of TGF-β: Western blot; for Intensity of TGF-β bands (55 kDa, 44 kDa, 23 kDa) adjusted to GAPDH: densitometric calculations vs. untreated ctrl.
Description: as §1

The next data set has as its system Primary murine HSC. Kind of data set: Inhibition of Aβ40 and 42 degradation by HSC in response to sacubitrilat (ELISA of supernatant). The data set is classed as cell-based. Particulars: 48 h, with vs. without LBQ657. On the procedure: FIG. 9 (A-B) shown an inhibition of Aβ40 and 42 degradation by HSC in response to sacubitrilat (LBQ657). Primary murine HSC were incubated with 1000 pg/ml Aβ40 or 42 with and without LBQ657. The content of Aβ in the cell culture supernatant was measured by ELISA 48 h after incubation with Aβ40 or 42 with and without LBQ657.
A general note: In an ELISA, binding on a coated surface is turned into a signal by an enzyme label.

Another data set relates to HSC-T6. Kind of data set: Aβ42 uptake from culture medium by HSC-T6 (ELISA of supernatant). The data set is classed as cell-based, rat. On the procedure: (§2) After 24 h, supernatant was centrifuged at 1500 g for 15 minutes and frozen at −80° C. until analysis.
(§3) Therefore, as a control for inherent decrease of amyloid concentrations control samples containing only culture medium, without cells (w/c) were incubated with Aβ for the same periods of time.

Data set [1] concerns eNOS in hSEC (human liver endothelial cells). Kind of data set: eNOS synthesis by hSEC treated with Aβ (ELISA). In kind it is cell-based. From the text: Means±SEM, *p<0.05, **p<0.01, ***p<0.001.
The nature of data set [2]: Loss of Aβ in cell culture medium without cells (control samples). The data set is classed as physicochemical. The procedure:
as §3

Data set [3] deals with astroglial primary cultures (APC). Kind of data set: Aβ42 uptake from culture medium by astroglial primary cultures (ELISA of supernatant). In kind it is cell-based, mouse. The following applies: astrocytes (APC); 1000 pg/ml Aβ42 in medium; 48 h of incubation. On the procedure: Astroglia-rich primary cultures (APC) were prepared from newborn C57/BL6 (Charles River) mouse brains as described elsewhere (Lourhmati A, Buniatian G H, Paul C, et al. Age-dependent astroglial vulnerability to hypoxia and glutamate: the role for erythropoietin. PLoS One 2013; 8:e77182.). Briefly, the cells obtained from 5-7 brains of newborn littermates were mechanically dissociated, centrifuged and plated onto cell culture flasks (1×10^6 cells/75 cm2) in DMEM with 4.5 g/l Glucose supplemented with 10% foetal calf serum, 100 μg/ml streptomycin sulphate, 100 units/ml penicillin G and […] (Biochrom AG, Berlin, Germany) in a humidified 10% CO2 atmosphere at 37° C.
as §2, §3

For the next data set, the system named is M1-4HSC. Kind of data set: Aβ42 uptake from culture medium by M1-4HSC (ELISA of supernatant). The data set is classed as cell-based. On the procedure:
as §2, §3

In a further data set the test system is LX-2. Kind of data set: Aβ42 uptake from culture medium by LX-2 (ELISA of supernatant). The data set is classed as cell-based, human. The following applies: 50,000-200,000 cells. On the procedure:
as §2

The test system of data set [4] is zinc-dependent Aβ-degrading enzymes (ACE, ECE, NEP) in M1-4HSC lysates. Description: Inhibition by EGTA of Aβ40/42 degradation in M1-4HSC lysates. The data set is classed as biochemical. Particulars: 5 mM EGTA; 30 and 60 minutes. On the procedure:
To quantify the Aβ42-degading ability of M1-4HSC lysate's, cell lysates from M1-4HSC (50,000 cells/ml) were obtained by 2 freezing thawing cycles at −80° C. and centrifugation for 10 min at 20,000 g.
To confirm that the disappearance of Aβ from HSC lysates reflects its enzymatic degradation rather than non-specific loss that can occur in cell lysates the activity of zinc-dependent AR-degrading enzymes comprising angiotensin converting enzyme (ACE) and endothelin converting enzyme (ECE) known to be present in HSC1 as well as NEP was blocked by 5 mM EGTA (white bars in FIG. 1D and FIG. 1E).

Data set [5] relates to VEGF in liver sinusoidal endothelial cells. Kind of data set: VEGF expression in liver sinusoidal endothelial cells exposed to Aβ. The data set is classed as cell-based.
[6] abbreviates: after 30 minutes of incubation with M1-4HSC lysates.

“Also recorded” adds a separate entry of the source.

amyloid beta 40 [Aβ40]: in the data set on Col-1 in M1-4HSC, the “Col-1 production (in words)” value is given as “only a slight reduction”. The “Expression of α-SMA” value in the data set with α-SMA in M1-4HSC is “reduced the expression”. For the same compound, the “Level compared to the initial level in control samples without cell lysates” value with M1-4HSC lysates (setting [6]) is reported as 50%; in the data set on M1-4HSC lysates (after 60 minutes of incubation with M1-4HSC lysates) it was 25%. Also, the “Degradation by M1-4HSC lysates” value in the data set with M1-4HSC lysates (after 30 minutes) was determined as 50%; in the data set with M1-4HSC lysates (after 60 minutes) it was 75%. Besides, in the data set with TGF-β in M1-4HSC, the “Expression of TGF-β” value is “reduced the expression”. In addition, the “Intensity of TGF-β bands (55 kDa, 44 kDa, 23 kDa) adjusted to GAPDH” value in the data set on TGF-β in M1-4HSC is “capable of decreasing only the 44 kDa band”.

Regarding `C[C@H](C[C@@H](Cc1ccc(-c2ccccc2)cc1)NC(=O)CCC(=O)O)C(=O)O` [LBQ657, Sacubitrilat], in the data set on Primary murine HSC (1000 pg/ml Aβ40), the “Aβ40 degradation by HSC (content of Aβ in supernatant)” value is on record as “Decreased degradation of Aβ”. In the data set with Primary murine HSC (1000 pg/ml Aβ42), the “Aβ42 degradation by HSC (content of Aβ in supernatant)” value was “Decreased degradation of Aβ”.

Consider amyloid beta 42 [Aβ42], for which, in the data set on HSC-T6, the “Uptake of Aβ42 vs. APC (decrease in cell culture supernatant)” value is reported as “two-fold higher uptake”. Moreover, the eNOS synthesis result in data set [1] was “upregulation of eNOS synthesis”. Further, in the data set with Col-1 in M1-4HSC, the “Col-1 production (in words)” value was “suppression of Col-1 production”. Also, the “Peptide absorbed on plastic carrier” value in data set [2] (from 1000 pg/ml Aβ42 in culture medium, after 48 h of incubation) was “about 50%”. The “Expression of α-SMA” value in the data set on α-SMA in M1-4HSC was “reduced the expression”. The “Level compared to the initial level in control samples without cell lysates” value with M1-4HSC lysates (setting [6]) was found to be 50%. Also, in the data set with M1-4HSC lysates (after 30 minutes), the “Degradation by M1-4HSC lysates” value stood at 50%. Besides, the “Aβ42 internalized by cells, of the remaining part available in culture medium” value in data set [3] came to 28%. Moreover, the “Uptake of Aβ42 vs. APC (decrease in cell culture supernatant)” value in the data set with M1-4HSC (M1-4HSC vs. APC, ELISA) is listed as “two-fold higher uptake”. Further, the “Aβ42 internalized by cells, of the remaining part available in culture medium” value in the data set on M1-4HSC (M1-4HSC, 1000 pg/ml Aβ42 in medium, 48 h of incubation) was 55%. In the data set with TGF-β in M1-4HSC, the “Suppression of TGF-β synthesis, Aβ42 compared with Aβ40” value is “more potent than Aβ40”; the “Expression of TGF-β” value is on record as “reduced the expression”; the “Intensity of TGF-β bands (55 kDa, 44 kDa, 23 kDa) adjusted to GAPDH” value is given as “significantly decreased intensity”. Besides, in the data set on LX-2, the “Amount of Aβ42 internalized by LX-2” value is on record as “grew with increasing number of cells in culture”.

`O=C(O)CN(CCOCCOCCN(CC(=O)O)CC(=O)O)CC(=O)O` [EGTA]: in [4], the “Effect on degradation of Aβ40/42 by M1-4HSC lysates” value was “dramatically inhibited; also recorded: abolished the degradation”.

As for amyloid beta [Aβ], in [5], the “Expression of liver permeability marker VEGF” value is reported as “increase in expression”. Besides, the eNOS synthesis entry in data set [1] is reported as “increased synthesis of eNOS”. The “Loss of Aβ after incubation with cell culture medium in the absence of cells” value in [2] (24-48 h, data not shown) is recorded as “over 50%”.
